# Patent US9040545B2, “Heterocyclyl pyrazolopyrimidine analogues as selective JAK inhibitors” (Cellzome Limited, priority 2010, dated 2015)
# How the values were obtained:
# JAK2 = molecular target: T1, JAK2 (Homo sapiens, UniProt O60674); test: Kinobeads assay, JAK2; format: binding; details: mixed Molt4/Ramos lysate, read-out: Inhibition values (IC50) JAK2
# T1 construct: endogenous in cells; host or cells: mixed Molt4/Ramos lysate (1:2)
# Protocol: (§1) The compounds of the present invention as described in the previous examples were tested in a Kinobeads™ assay as described for ZAP-70 (WO-A 2007/137867). Briefly, test compounds (at various concentrations) and the affinity matrix with the immobilized aminopyrido-pyrimidine ligand 24 were added to cell lysate aliquots and allowed to bind to the proteins in the lysate sample. After the incubation time the beads with captured proteins were separated from the lysate. Bound proteins were then eluted and the presence of JAK2 and JAK3 was detected and quantified using specific antibodies in a dot blot procedure and the Odyssey infrared detection system. Dose response curves for individual kinases were generated and IC50 values calculated. Kinobeads™ assays for ZAP-70 (WO-A 2007/137867) and for kinase selectivity profiling (WO-A 2006/134056) have been previously described.
# (§2) The affinity matrix was washed two times with 15 mL of 1×DP buffer containing 0.2% NP40 (IGEPAL® CA-630, Sigma, #I3021) and then resuspended in 1×DP buffer containing 0.2% NP40 (3% beads slurry).
# (§3) 5×DP buffer 250 mM Tris-HCl pH 7.4, 25% Glycerol, 7.5 mM MgCl2, 750 mM NaCl, 5 mM Na3VO4; filter the 5×DP buffer through a 0.22 μm filter and store in aliquots at −80° C. The 5×DP buffer is diluted with H2O to 1×DP buffer containing 1 mM DTT and 25 mM NaF.
# (§4) Stock solutions of test compounds were prepared in DMSO. In a 96 well plate 30 μL solution of diluted test compounds at 5 mM in DMSO were prepared. Starting with this solution a 1:3 dilution series (9 steps) was prepared. For control experiments (no test compound) a buffer containing 2% DMSO was used.
# Molt4 cells (ATCC catalogue number CRL-1582) and Ramos cells (ATCC catalogue number CRL-1596) were grown in 1 L Spinner flasks (Integra Biosciences, #182101) in suspension in RPMI 1640 medium (Invitrogen, #21875-034) supplemented with 10% Fetal Bovine Serum (Invitrogen) at a density between 0.15×106 and 1.2×10^6 cells/mL. Cells were harvested by centrifugation, washed once with 1×PBS buffer (Invitrogen, #14190-094) and cell pellets were frozen in liquid nitrogen and subsequently stored at −80° C. Cells were homogenized in a Potter S homogenizer in lysis buffer: 50 mM Tris-HCl, 0.8% NP40, 5% glycerol, 150 mM NaCl, 1.5 mM MgCl2, 25 mM NaF, 1 mM sodium vanadate, 1 mM DTT, pH 7.5. One complete EDTA-free tablet (protease inhibitor cocktail, Roche Diagnostics, 1873580) per 25 mL buffer was added. The material was dounced 10 times using a mechanized POTTER S, transferred to 50 mL falcon tubes, incubated for 30 minutes on ice and spun down for 10 minutes at 20,000 g at 4° C. (10,000 rpm in Sorvall SLA600, precooled). The supernatant was transferred to an ultracentrifuge (UZ)-polycarbonate tube (Beckmann, 355654) and spun for 1 hour at 100,000 g at 4° C. (33.500 rpm in Ti50.2, precooled). The supernatant was transferred again to a fresh 50 mL falcon tube, the protein concentration was determined by a Bradford assay (BioRad) and samples containing 50 mg of protein per aliquot were prepared. The samples were immediately used for experiments or frozen in liquid nitrogen and stored frozen at −80° C.
# (§5) Cell lysate (approximately 50 mg protein per plate) was thawed in a water bath at room temperature and then stored on ice. To the thawed cell lysate 1×DP 0.8% NP40 buffer containing protease inhibitors (1 tablet for 25 mL buffer; EDTA-free protease inhibitor cocktail; Roche Diagnostics 1873580) was added in order to reach a final protein concentration of 10 mg/mL total protein. The diluted cell lysate was stored on ice. Mixed Molt4/Ramos lysate was prepared by combining one volume of Molt4 lysate and two volumes of Ramos lysate (ratio 1:2).
# To a 96 well filter plate (Multiscreen HTS, BV Filter Plates, Millipore #MSBVN1250) were added per well: 100 μL affinity matrix (3% beads slurry), 3 μL of compound solution, and 50 μL of diluted lysate. […]
# Aurora A = molecular target: T2, Aurora A (Homo sapiens, UniProt O14965); test: Kinobeads assay, Aurora A; format: binding; details: for IC50: lysate of pervanadate-treated Jurkat cells, read-out: Inhibition values (IC50) Aur A
# T2 construct: cell lysates from Jurkat cells (ATCC TIB-152) used; endogenous in cells; host or cells: Jurkat cells (ATCC TIB-152), treated with pervanadate
# T2 sequence (O14965 1-403): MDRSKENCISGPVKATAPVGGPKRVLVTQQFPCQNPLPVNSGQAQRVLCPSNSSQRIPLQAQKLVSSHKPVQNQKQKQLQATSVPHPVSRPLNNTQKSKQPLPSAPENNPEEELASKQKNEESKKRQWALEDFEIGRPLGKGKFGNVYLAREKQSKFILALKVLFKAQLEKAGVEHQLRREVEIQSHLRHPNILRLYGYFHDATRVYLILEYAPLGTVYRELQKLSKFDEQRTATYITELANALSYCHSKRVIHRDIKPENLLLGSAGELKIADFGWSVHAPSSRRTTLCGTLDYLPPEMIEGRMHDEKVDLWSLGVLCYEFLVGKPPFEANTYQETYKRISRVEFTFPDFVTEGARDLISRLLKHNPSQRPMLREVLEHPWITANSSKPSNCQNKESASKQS
# Protocol: as §1, §2, §3, §4, §5
# To a 96 well filter plate (Multiscreen HTS, BV Filter Plates, Millipore #MSBVN1250) were added per well: 100 μL affinity matrix (3% beads slurry), 3 μL of compound solution, and 50 μL of diluted lysate. Plates were sealed and incubated for 3 hours in a cold room on a plate shaker (Heidolph tiramax 1000) at 750 rpm. Afterwards the plate was washed 3 times with 230 μL washing buffer (1×DP 0.4% NP40). The filter plate was placed on top of a collection 1 plate (Greiner bio-one, PP-microplate 96 well V-shape, 65120) and the beads were then eluted with 20 μL of sample buffer (100 mM Tris, pH 7.4, 4% SDS, 0.00025% bromophenol blue, 20% glycerol, 50 mM DTT). The eluate was frozen quickly at −80° C. and stored at −20° C.
# The kinases in the eluates were detected and quantified by spotting on nitrocellulose membranes and using a first antibody directed against the kinase of interest and a fluorescently labelled secondary antibody (anti-rabbit IRDye™ antibody 800 (Licor, #926-32211). The Odyssey Infrared Imaging system from LI-COR Biosciences (Lincoln, Nebr., USA) was operated according to instructions provided by the manufacturer (Schutz-Geschwendener et al, 2004. Quantitative, two-color Western blot detection with infrared fluorescence. Published May 2004 by LI-COR Biosciences, www.licor.com).
# After spotting of the eluates the nitrocellulose membrane (BioTrace NT; PALL, #BTNT30R) was first blocked by incubation with Odyssey blocking buffer (LICOR, 927-40000) for 1 hour at room temperature. Blocked membranes were then incubated for 16 hours at the temperature shown in Table 5 with the first antibody diluted in Odyssey blocking buffer (LICOR #927-40000). Afterwards the membrane was washed twice for 10 minutes with PBS buffer containing 0.2% Tween 20 at room temperature. […]
# T1 sequence (O60674 whole entry): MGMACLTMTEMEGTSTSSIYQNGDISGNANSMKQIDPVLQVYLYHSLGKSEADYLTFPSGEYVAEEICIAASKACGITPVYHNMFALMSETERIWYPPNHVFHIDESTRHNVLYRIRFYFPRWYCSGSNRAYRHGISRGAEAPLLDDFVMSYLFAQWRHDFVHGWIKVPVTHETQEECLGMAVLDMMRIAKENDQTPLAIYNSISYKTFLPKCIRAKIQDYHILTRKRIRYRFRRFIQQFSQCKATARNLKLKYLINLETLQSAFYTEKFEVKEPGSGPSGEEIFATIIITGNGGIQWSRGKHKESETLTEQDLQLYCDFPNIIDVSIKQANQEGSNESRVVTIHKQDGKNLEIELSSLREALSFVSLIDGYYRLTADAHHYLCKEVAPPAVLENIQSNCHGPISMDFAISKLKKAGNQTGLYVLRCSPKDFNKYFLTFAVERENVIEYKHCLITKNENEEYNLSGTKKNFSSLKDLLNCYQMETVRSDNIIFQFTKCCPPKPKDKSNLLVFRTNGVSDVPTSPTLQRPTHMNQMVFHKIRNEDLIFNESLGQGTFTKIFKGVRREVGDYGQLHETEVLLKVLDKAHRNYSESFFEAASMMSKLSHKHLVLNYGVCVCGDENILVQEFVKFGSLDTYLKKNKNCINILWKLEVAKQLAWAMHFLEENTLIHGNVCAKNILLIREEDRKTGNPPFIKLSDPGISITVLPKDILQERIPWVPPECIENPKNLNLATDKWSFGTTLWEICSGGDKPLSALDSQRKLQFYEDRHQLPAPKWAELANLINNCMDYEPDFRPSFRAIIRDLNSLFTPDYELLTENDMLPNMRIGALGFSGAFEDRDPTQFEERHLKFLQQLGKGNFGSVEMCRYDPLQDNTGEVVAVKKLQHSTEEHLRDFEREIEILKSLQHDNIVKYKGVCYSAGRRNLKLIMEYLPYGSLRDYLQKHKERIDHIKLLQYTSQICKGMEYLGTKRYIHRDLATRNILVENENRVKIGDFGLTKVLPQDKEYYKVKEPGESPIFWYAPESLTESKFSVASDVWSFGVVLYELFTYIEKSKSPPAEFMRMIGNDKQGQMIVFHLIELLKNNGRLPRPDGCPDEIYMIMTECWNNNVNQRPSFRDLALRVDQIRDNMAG
SMILES,IC50 (JAK2),JAK3/AurA Fold Selectivity (Aurora A),IC50 (Aurora A)
"O=C1COCCN1c1cccc(Cn2ncc3cnc(Nc4cnn(CCO)c4)nc32)c1 [Example 29, 4-(3-((6-((1-(2-Hydroxyethyl)-1H-pyrazol-4-yl)amino)-1H-pyrazolo[3,4-d]pyrimidin-1-yl)methyl)phenyl)morpholin-3-one]",≥ 10000 nM,3-10 Fold,100 to 1000 nM
"Cn1cc(Nc2ncc3cnn(Cc4cccc(N5CCN(S(C)(=O)=O)CC5)c4)c3n2)cn1 [Example 100, N-(1-methyl-1H-pyrazol-4-yl)-1-(3-(4-(methylsulfonyl)piperazin-1-yl)benzyl)-1H-pyrazolo[3,4-d]pyrimidin-6-amine]",≥ 10000 nM,3-10 Fold,100 to 1000 nM
"Cn1cc(Nc2ncc3cnn(Cc4cccc(N5CCS(=O)(=O)CC5)c4)c3n2)cn1 [Example 25, 4-(3-((6-((1-Methyl-1H-pyrazol-4-yl)amino)-1H-pyrazolo[3,4-d]pyrimidin-1-yl)methyl)phenyl)thiomorpholine 1,1-dioxide]",≥ 10000 nM,10-50 Fold,100 to 1000 nM
"O=C(c1cc(F)c(F)c(Cn2ncc3cnc(Nc4cnn(CCO)c4)nc32)c1F)N1CCOCC1 [Example 111, morpholino(2,4,5-trifluoro-3-((6-((1-(2-hydroxyethyl)-1H-pyrazol-4-yl)amino)-1H-pyrazolo[3,4-d]pyrimidin-1-yl)methyl)phenyl)methanone]",1000 to 10000 nM,10-50 Fold,100 to 1000 nM
"Cn1cc(Nc2ncc3cnn(Cc4cccc(-c5cnn(C)c5)c4)c3n2)cn1 [Example 115, N-(1-methyl-1H-pyrazol-4-yl)-1-(3-(1-methyl-1H-pyrazol-4-yl)benzyl)-1H-pyrazolo[3,4-d]pyrimidin-6-amine]",1000 to 10000 nM,10-50 Fold,100 to 1000 nM
"CNC(=O)Cn1cc(Nc2ncc3cnn(Cc4cccc(N5CCOCC5)c4)c3n2)cn1 [Example 12, N-Methyl-2-(4-((1-(3-morpholinobenzyl)-1H-pyrazolo[3,4-d]pyrimidin-6-yl)amino)-1H-pyrazol-1-yl)acetamide]",≥ 10000 nM,3-10 Fold,100 to 1000 nM
"C[C@@H]1COCCN1c1cccc(Cn2ncc3cnc(Nc4cnn(C)c4)nc32)c1 [Example 113, (R)-N-(1-methyl-1H-pyrazol-4-yl)-1-(3-(3-methylmorpholino)benzyl)-1H-pyrazolo[3,4-d]pyrimidin-6-amine]",≥ 10000 nM,>50 Fold,1000 to 10000 nM
"CCOC(=O)C1CCCN(c2cccc(Cn3ncc4cnc(Nc5cnn(C)c5)nc43)c2)C1 (stereo not drawn) [Example 13, Ethyl 1-(3-((6-((1-methyl-1H-pyrazol-4-yl)amino)-1H-pyrazolo[3,4-d]pyrimidin-1-yl)methyl)phenyl)piperidine-3-carboxylate]",≥ 10000 nM,3-10 Fold,1000 to 10000 nM
"NC(=O)CCn1cc(Nc2ncc3cnn(Cc4cccc(N5CCOCC5)c4)c3n2)cn1 [Example 14, 3-(4-((1-(3-Morpholinobenzyl)-1H-pyrazolo[3,4-d]pyrimidin-6-yl)amino)-1H-pyrazol-1-yl)propanamide]",≥ 10000 nM,10-50 Fold,100 to 1000 nM

# Continued, values first:
IC50 (JAK2),JAK3/AurA Fold Selectivity (Aurora A),IC50 (Aurora A),SMILES
1000 to 10000 nM,>50 Fold,1000 to 10000 nM,"CN(C)CCCn1cc(Nc2ncc3cnn(Cc4cccc(N5CCOCC5)c4)c3n2)cn1 [Example 4, N-(1-(3-(Dimethylamino)propyl)-1H-pyrazol-4-yl)-1-(3-morpholinobenzyl)-1H-pyrazolo[3,4-d]pyrimidin-6-amine]"
1000 to 10000 nM,10-50 Fold,100 to 1000 nM,"Cn1cc(Nc2ncc3cnn(Cc4cccc(N5CCNCC5)c4)c3n2)cn1 [Example 22, N-(1-Methyl-1H-pyrazol-4-yl)-1-(3-(piperazin-1-yl)benzyl)-1H-pyrazolo[3,4-d]pyrimidin-6-amine]"
1000 to 10000 nM,10-50 Fold,100 to 1000 nM,"OCCn1cc(Nc2ncc3cnn(Cc4cc(F)cc(N5CCNCC5)c4)c3n2)cn1 [Example 93, 2-(4-((1-(3-fluoro-5-(piperazin-1-yl)benzyl)-1H-pyrazolo[3,4-d]pyrimidin-6-yl)amino)-1H-pyrazol-1-yl)ethanol]"
1000 to 10000 nM,10-50 Fold,100 to 1000 nM,"CCn1cc(-c2cccc(Cn3ncc4cnc(Nc5cnn(C)c5)nc43)c2)cn1 [Example 116, 1-(3-(1-ethyl-1H-pyrazol-4-yl)benzyl)-N-(1-methyl-1H-pyrazol-4-yl)-1H-pyrazolo[3,4-d]pyrimidin-6-amine]"
100 to 1000 nM,>50 Fold,1000 to 10000 nM,"Cn1cc(Nc2ncc3cnn(Cc4c(F)c(F)cc(C(=O)N5CCOCC5)c4F)c3n2)cn1 [Example 110, morpholino(2,4,5-trifluoro-3-((6-((1-methyl-1H-pyrazol-4-yl)amino)-1H-pyrazolo[3,4-d]pyrimidin-1-yl)methyl)phenyl)methanone]"
100 to 1000 nM,10-50 Fold,100 to 1000 nM,"Cn1cc(Nc2ncc3cnn(Cc4cc(F)cc(N5CCNCC5)c4F)c3n2)cn1 [Example 95, 1-(2,5-difluoro-3-(piperazin-1-yl)benzyl)-N-(1-methyl-1H-pyrazol-4-yl)-1H-pyrazolo[3,4-d]pyrimidin-6-amine]"
